According to US6838560B1, “Process for manufacturing morpholino-nucleotides, and use thereof for the analysis of and labelling of nucleic acid sequences” (priority 1999, dated 2005):

Key:
Format in all cases: biochemical
Taq DNA polymerase = molecular target: T1, Taq DNA polymerase (Thermus aquaticus, UniProt P19821); test: Template-dependent 3' labelling / primer A extension, polyacrylamide gel; settings: for enzymatic incorporation at 3' end of primer A: MATPP 400, 200, 50 μM, MATPPF 2.5 mM, 400, 200, 50 μM, 70° C., 10 minutes; for interruption of chain elongation after incorporation: with dGTP and dTTP (solution 2P), FIG. 4
T1 construct: purchased Boehringer Mannheim
Experimental: (§1) Use of morpholino A putrescine (MATPP) and morpholino A fluorescein (MATPPF) for the template-dependent 3′ labelling of DNA fragments; test of enzymatic incorporation of these compounds by three polymerases (Taq, Klenow, Klenow Exo Free) and a reverse transcriptase.
(§2) These two nucleoside triphosphate derivatives are tested in enzymatic incorporation to label an oligonucleotide 13 bases long at its 3′ end. This labelling is referred to as “template-dependent” since the enzymes used need the complementary strand to extend the oligonucleotide according to the Watson & Crick rules. Sequence A (17870 pmol/mL) studied and also its complementary target C (16128 pmol/mL) are given in the figure below: • Target C: 3′-TGCCAACCAACCCCACCTCAACCTCTG-5′ (SEQ ID NO: 7) • Primer A: 5′-ACG GTT GGT TGG G (13 bp) (SEQ ID NO: 8) • Expected fragments: 5′-ACG GTT TGG GGT GGA (18 bp) (SEQ ID NO: 9) • and lengths (bp): 5′-ACGGTTGGTTGGGGTGGAGTTGGA (24 bp)(SEQ ID NO: 10) 5′-ACGGTTGGTTGGGGTGGAGTTGGAGA (26 bp) (SEQ ID NO: 11) 5′-ACGGTTGGTTGGGGTGGAGTTGGAGAC (27 bp) (SEQ ID NO: 12)
(§3) Three enzymes are used for this labelling: Taq DNA polymerase (Boehringer Mannheim), the Klenow fragment (Boehringer Mannheim) and the Klenow exonuclease-free polymerase (Amersham Life Science). The primer is labelled at its 5′ end by incorporation of ^32P phosphate with the “Ready to go” T4 Polynucleotide Kinase kit (Pharmacia Biotech). The radiolabelled primer is noted A*.
(§4) The reaction buffers for the three enzymes are prepared for 10 reactions:
(§5) The enzymes are then diluted in the following manner, for 10 reactions: • Taq (5U/μL): 10×0.1 μL of Taq+10×15.5 μL of H2O • Klenow (20U/μL): 10×0.1 μL of Klenow+10×15.5 μL of H2O • Klenow Exo Free (5U/μL): 10×0.1 μL of Klenow Exo Free+10×15.5 μL of H2O.
(§6) Solutions containing the normal nucleoside triphosphates are also prepared: • Solution “2P” composed of a mixture of dGTP and dTTP each at 0.1 mM • Solution “4P” composed of a mixture of dATP, dCTP, dGTP and dTTP each at 0.1 mM
(§7) The implementation reactions are described in Table 14 below:
(§8) The morpholino A putrescine is thus tested at three concentrations: 400, 200 and 50 μM, while the morpholino A fluorescein is reacted at 2.5 mM, 400, 200 and 50 μM.
(§9) Before adding the enzyme, the mixture is denatured at 94° C. for 5 minutes. It is then left to return to ambient temperature in order for the hybridization to take place. The elongation is carried out at 70° C. for the Taq and at 37° C. for the two Klenow fragments, and for 10 minutes. Finally, the medium is again denatured with a formamide solution and heating at 90° C. for 5 minutes, after which it is placed on a polyacrylamide gel. The separation is carried out by electrophoresis at 2000 V. The gel is read using a Phosphorimager; the results obtained are given in FIG. 4.
(§10) In this figure, the lanes 1 serve as migration control for the labelled oligonucleotide A. This oligonucleotide has a length of 13 bases (13-mer). Lanes 2, 3 and 4 allow the elongation of the oligonucleotide A and the incorporation of the morpholino A putrescine to be monitored. Under these conditions, only the nucleotides dGTP and dTTP (solution “2P”) were added and can be used by the enzyme to carry out the extention of the primer. The presence of the morpholino A putrescine in the reaction medium allows its incorporation at the level of base 18. A control was carried out, placing in the medium only the “2P” mixture; in this case, the enzyme continues its extension up to the 17th base since it has no adenosine derivative to continue its polymerization. […] Reactions 5 to 8 correspond to the same reactions with morpholino A fluorescein. […] It is noted, however, for the two Klenow fragments, that there was occasionally incorporation of another base (G or T) in place of the morpholino derivative. Specifically, in these cases, elongation products corresponding to the 18-mer and 24-mer are found. […]

[1] = molecular target: T2, Klenow exonuclease-free polymerase (Escherichia coli, UniProt P00582, D355A/E357A); test: as above; settings: for enzymatic incorporation at 3' end of primer A: MATPP 400, 200, 50 μM, MATPPF 2.5 mM, 400, 200, 50 μM, 37° C., 10 minutes; for interruption of chain elongation after incorporation: with dGTP and dTTP (solution 2P), FIG. 4
T2 construct: purchased Amersham Life Science
Experimental: as §1, §2, §3, §4, §5, §6, §7, §8, §9, §10

Klenow fragment = molecular target: T3, Klenow fragment (Escherichia coli, UniProt P00582); test: as above; settings: for enzymatic incorporation at 3' end of primer A: MATPP 400, 200, 50 μM, MATPPF 2.5 mM, 400, 200, 50 μM, 37° C., 10 minutes; for interruption of chain elongation after incorporation: with dGTP and dTTP (solution 2P), FIG. 4
T3 construct: the Klenow fragment (Boehringer Mannheim); purchased Boehringer Mannheim
Experimental: as §1, §2, §3, §4, §5, §6, §7, §8, §9, §10

Taq polyerase = molecular target: T4, Taq polyerase (Thermus aquaticus, UniProt P19821); test: Sequencing reaction with fluorescent primers on Bluescript plasmid DNA (Example 14); settings: fluorescence detection of the sequencing products
T4 construct: purchased Perkin-Elmer
Experimental: Morpholino A putrescine (MATPP) 7 and morpholino A fluorescein (MATPPF) 12 are tested in squencing reaction with fluorescent primers (Applied Biosystems, Perkin-Elmer, Foster City, Calif., USA) on a standard template which is a Bluescript plasmid DNA (Stratagene, La Jolla, Calif., USA). The enzyme used is a Taq polyerase (Perkin-Elmer) which is used in its buffer (Thermo Sequenase buffer, Amersham Life Science).
Three sequencing reactions are carried out with MATPP at 100, 200 and 400 μM and four sequencing reactions are carried out with MATPPF at 200, 500, 1000 and 5000 μM, along with control reactions with the dideoxynucleotide ddATP at a concentration of 250 μM (Boehringer).
The reaction medium, of a total volume of 10 μL, contains 125 ng of template, 1.25 pmol of fluorescent primer and the other constituents as described in the tables.
The medium is subjected to heating cycles in order to produce in number molecules of newly formed DNA strands. […]
The amplification products are purified on a Sephadex G50 column. The products of each sequencing reaction are mixed with the products of a control reaction and analysed by electrophoresis. […]

Taq polymerase = molecular target: T5, Taq polymerase (Thermus aquaticus, UniProt P19821); test: Sequencing reaction with fluorescent primers on Bluescript plasmid DNA (Example 13); settings: 200 and 500 μM; Bluescript plasmid template; FIG. 1
T5 construct: purchased Perkin-Elmer
Experimental: The morpholino T glycine 4 of Example 2 is tested in sequence reaction with fluorescent primers (Applied Biosystems, Perkin-Elmer, Foster City, Calif., USA) on a standard template which is a Bluescript plasmid DNA (Stratagene, La Jolla, Calif., USA). The enzyme used is a Taq polymerase (Perkin-Elmer), which is used in its buffer (TACS buffer, Perkin-Elmer).
Two reactions are carried out with morpholino T glycine at 200 and 500 μM (Table 4), and also two control reactions (Table 5) with dideoxynucleotide T (Boehringer).
The reaction medium, of a total volume of 10 μL, contains 125 ng of template, 1.25 pmol of fluorescent primer and the other constituents given in Tables 4 and 5. The medium is subjected to heat cycles in order to produce in number molecules of newly formed DNA strands. […]
The products of the sequencing reactions are detected by fluorescence. The results obtained are represented in the attached figure which illustrates the detection of the products in the sequencing gel analysed by the Perkin-Elmer Analysis software, version 3.0.
For each test, the primers are identifiable by their fluorescence properties, the ROX label (red) for the control reaction 250 μm dideoxythymidine triphosphate (dashed-curve) and the label JOE (green) for the reaction concerning the 200 μm morpholino T glycine (solid-line curve).

T2 sequence (P00582 324-928 D355A/E357A): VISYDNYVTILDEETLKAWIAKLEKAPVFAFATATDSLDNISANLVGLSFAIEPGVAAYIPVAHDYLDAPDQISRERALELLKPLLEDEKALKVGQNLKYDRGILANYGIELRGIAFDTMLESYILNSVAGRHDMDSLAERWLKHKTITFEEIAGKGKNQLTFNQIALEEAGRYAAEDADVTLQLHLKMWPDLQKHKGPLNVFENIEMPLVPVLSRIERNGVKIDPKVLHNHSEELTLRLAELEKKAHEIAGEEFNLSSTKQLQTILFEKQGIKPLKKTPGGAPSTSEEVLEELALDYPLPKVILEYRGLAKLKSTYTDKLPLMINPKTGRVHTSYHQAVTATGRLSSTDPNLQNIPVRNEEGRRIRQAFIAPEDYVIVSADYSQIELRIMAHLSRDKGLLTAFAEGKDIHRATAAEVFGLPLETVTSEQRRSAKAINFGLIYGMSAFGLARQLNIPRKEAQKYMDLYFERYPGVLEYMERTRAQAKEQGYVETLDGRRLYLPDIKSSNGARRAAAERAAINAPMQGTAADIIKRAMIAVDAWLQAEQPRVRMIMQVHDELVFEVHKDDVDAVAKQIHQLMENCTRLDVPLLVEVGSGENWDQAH
T1 sequence (P19821 whole entry): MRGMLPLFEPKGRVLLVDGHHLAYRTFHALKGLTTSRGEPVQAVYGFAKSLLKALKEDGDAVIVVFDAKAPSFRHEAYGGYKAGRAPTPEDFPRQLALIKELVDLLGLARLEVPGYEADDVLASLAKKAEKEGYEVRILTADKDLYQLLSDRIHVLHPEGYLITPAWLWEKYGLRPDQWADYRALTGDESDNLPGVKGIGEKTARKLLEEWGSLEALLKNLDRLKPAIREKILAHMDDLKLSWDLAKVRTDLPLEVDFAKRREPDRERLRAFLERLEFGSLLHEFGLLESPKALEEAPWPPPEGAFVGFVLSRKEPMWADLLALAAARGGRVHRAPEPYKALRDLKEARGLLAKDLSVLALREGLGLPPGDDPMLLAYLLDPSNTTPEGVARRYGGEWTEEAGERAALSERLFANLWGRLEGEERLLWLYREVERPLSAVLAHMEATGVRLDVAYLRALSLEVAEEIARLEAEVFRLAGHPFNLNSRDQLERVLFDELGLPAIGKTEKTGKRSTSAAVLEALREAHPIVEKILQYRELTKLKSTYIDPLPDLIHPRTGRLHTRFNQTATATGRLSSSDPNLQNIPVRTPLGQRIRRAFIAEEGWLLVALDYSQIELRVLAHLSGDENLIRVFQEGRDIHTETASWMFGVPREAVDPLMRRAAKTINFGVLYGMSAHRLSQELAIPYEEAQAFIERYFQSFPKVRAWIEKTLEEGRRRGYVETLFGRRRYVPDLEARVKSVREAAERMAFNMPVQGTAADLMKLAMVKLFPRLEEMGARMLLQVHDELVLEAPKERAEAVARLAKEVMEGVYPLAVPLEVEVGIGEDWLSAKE
T3 sequence (P00582 324-928): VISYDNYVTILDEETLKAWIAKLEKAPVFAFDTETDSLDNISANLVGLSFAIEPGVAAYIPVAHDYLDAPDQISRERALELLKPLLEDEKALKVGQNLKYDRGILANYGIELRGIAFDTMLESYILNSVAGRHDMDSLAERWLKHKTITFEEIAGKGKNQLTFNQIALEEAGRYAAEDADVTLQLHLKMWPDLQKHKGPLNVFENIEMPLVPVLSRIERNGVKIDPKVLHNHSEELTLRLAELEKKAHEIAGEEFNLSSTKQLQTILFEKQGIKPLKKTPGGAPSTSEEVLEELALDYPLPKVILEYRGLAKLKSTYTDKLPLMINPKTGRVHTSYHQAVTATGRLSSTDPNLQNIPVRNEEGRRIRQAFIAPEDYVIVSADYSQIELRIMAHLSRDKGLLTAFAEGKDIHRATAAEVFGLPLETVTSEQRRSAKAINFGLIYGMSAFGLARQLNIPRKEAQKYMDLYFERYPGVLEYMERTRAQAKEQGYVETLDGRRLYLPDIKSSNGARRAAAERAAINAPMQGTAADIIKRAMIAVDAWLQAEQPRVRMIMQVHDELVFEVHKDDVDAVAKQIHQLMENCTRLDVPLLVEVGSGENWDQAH
T5 sequence (P19821 whole entry): as the sequence (P19821 whole entry) above
T4 sequence (P19821 whole entry): as above

Row | Compound | enzymatic incorporation at 3' end of primer A (Taq DNA polymerase) | interruption of chain elongation after incorporation (Taq DNA polymerase) | enzymatic incorporation at 3' end of primer A [1] | interruption of chain elongation after incorporation [1] | enzymatic incorporation at 3' end of primer A (Klenow fragment) | interruption of chain elongation after incorporation (Klenow fragment) | detection of sequencing reaction products (Taq polyerase) | action as chain terminator in sequencing reaction (Taq polymerase) | incorporation by the Taq polymerase in sequencing reaction (Taq polymerase)
1 | Nc1ncnc2c1ncn2C1CN(CCCCNC(=S)Nc2ccc3c(c2)C(=O)OC32c3ccc(O)cc3Oc3cc(O)ccc32)CC(COP(=O)(O)OP(=O)(O)OP(=O)(O)O)O1 (stereo not drawn) [morpholino A fluorescein] | incorporate | stops the polymerization of the complementary strand | incorporate | stops the polymerization of the complementary strand | incorporate | stops the polymerization of the complementary strand | detected by means of the fluorophore borne by this derivative | – | –
2 | 4-(carboxymethyl)-2-(thymidin-1-yl)-6-(hydroxymethyl)morpholine 6-triphosphate [morpholino T glycine] | – | – | – | – | – | – | – | acts correctly as a chain terminator | correctly incorporated in a base-specific manner
3 | 4-(aminobutyl)-2-(adenosin-9-yl)-6-(hydroxymethyl)morpholine 6-triphosphate [morpholino A putrescine] | incorporate | interruption of the elongation of the chain | incorporate | interruption of the elongation of the chain | incorporate | interruption of the elongation of the chain | – | – | –
